Values of other authors as cited in patent US9730971B2 (priority 2008, dated 2017).

Tests used:
Details in all cases: reported in Non Patent Literature 2
[1] = system: Gram-positive bacteria such as Staphylococcos aureus, Streptococcus mutans, Bacillus subtilis, and Bacillus ammoniagenes
[2] = system: Gram-negative bacteria such as Escherichia coli, Enterobacter aerogenes, and Pseudomonas aeruginosa
[3] = system: fungi such as Saccharomyces cerevisiae, Candida utilis, and Penichillium chrysogenum

CCCCCCCCCCCCCCCc1cccc(O)c1C(=O)O [anacardic acid]
antimicrobial action [1]: antimicrobial action
antimicrobial action [2]: no antimicrobial action
antimicrobial action [3]: no antimicrobial action
